Experimental data as given in patent publication US20120122860A1, “SOLID FORMS OF SULFONAMIDES AND AMINO ACIDS” (Plexxikon, Inc., priority 2009, published 2012).

How the values were obtained:
Btk = Btk (Homo sapiens, UniProt Q06187); assay: Kinase activity assay, Btk
Kdr = Kdr (Homo sapiens, UniProt P35968); assay: Kinase activity assay, Kdr
TEC = biological target: T1, TEC (Homo sapiens, UniProt P42680); assay: Kinase activity assay, TEC
T1 sequence (P42680 1-631): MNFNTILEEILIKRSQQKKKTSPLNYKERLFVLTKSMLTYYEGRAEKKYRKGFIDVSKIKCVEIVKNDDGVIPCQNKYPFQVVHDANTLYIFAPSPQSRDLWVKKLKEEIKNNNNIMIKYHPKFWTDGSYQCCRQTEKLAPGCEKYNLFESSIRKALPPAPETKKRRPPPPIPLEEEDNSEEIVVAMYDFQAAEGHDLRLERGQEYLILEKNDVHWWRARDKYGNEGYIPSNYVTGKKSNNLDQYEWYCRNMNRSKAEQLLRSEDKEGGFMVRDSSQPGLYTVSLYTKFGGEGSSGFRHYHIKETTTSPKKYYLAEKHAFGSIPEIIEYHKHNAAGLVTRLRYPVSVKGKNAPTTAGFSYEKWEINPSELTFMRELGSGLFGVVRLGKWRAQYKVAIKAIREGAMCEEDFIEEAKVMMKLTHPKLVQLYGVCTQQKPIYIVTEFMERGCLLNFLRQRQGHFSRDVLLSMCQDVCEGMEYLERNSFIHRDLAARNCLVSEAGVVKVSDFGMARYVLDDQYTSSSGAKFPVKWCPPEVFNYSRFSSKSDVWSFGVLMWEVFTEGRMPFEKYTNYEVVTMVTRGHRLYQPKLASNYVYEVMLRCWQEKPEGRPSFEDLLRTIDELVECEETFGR

B-Raf V600E = B-Raf V600E (Homo sapiens, UniProt P15056, V600E); assay: Kinase activity assay, B-Raf V600E; type: biochemical; conditions: read-out: activity toward kinase B-Raf V600E, IC50
Kit = Kit (Homo sapiens, UniProt P10721); assay: Kinase activity assay, Kit
B-Raf = B-Raf (Homo sapiens, UniProt P15056); assay: Kinase activity assay, B-Raf; type: biochemical; conditions: read-out: activity toward kinase B-Raf, IC50
C-Raf = C-Raf (Homo sapiens, UniProt P04049); assay: Kinase activity assay, C-Raf
Src = Src (Homo sapiens, UniProt P12931); assay: Kinase activity assay, Src
A-Raf = biological target: T2, A-Raf (Homo sapiens, UniProt P10398); assay: Kinase activity assay, A-Raf
T2 sequence (P10398 1-606): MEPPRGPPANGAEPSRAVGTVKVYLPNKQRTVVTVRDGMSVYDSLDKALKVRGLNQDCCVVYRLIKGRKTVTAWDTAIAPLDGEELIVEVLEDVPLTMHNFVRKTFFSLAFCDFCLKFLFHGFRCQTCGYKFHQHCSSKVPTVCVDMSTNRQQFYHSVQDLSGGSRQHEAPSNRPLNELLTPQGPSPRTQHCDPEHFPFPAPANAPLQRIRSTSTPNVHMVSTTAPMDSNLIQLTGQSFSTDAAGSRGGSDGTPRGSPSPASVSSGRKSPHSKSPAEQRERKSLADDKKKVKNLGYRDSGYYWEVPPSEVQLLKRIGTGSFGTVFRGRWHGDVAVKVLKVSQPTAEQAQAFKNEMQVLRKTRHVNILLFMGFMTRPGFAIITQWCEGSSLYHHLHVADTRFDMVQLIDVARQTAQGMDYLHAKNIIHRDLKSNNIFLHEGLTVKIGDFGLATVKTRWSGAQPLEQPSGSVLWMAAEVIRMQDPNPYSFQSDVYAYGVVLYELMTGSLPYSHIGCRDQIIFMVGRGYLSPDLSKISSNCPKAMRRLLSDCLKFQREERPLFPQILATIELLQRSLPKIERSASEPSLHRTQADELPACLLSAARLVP

Fms = Fms (Homo sapiens, UniProt P07333); assay: Kinase activity assay, Fms
MAP4K4 = MAP4K4 (Homo sapiens, UniProt O95819); assay: Kinase activity assay, MAP4K4

Measured: IC50

Chain of Src (P12931 whole entry): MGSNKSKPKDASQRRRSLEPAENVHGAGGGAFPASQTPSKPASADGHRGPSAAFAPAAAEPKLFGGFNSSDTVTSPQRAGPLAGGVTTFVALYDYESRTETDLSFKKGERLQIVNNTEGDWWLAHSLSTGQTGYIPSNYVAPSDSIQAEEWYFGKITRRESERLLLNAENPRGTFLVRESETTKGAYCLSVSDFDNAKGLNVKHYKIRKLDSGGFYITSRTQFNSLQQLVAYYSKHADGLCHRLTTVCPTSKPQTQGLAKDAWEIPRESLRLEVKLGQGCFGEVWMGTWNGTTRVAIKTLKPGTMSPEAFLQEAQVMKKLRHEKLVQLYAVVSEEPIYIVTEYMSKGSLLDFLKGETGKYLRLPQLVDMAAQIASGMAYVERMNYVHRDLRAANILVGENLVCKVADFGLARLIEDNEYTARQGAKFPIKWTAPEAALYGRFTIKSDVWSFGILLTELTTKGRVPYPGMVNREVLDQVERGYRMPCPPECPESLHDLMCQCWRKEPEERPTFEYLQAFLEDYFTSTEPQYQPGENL
Chain of Fms (P07333 20-972): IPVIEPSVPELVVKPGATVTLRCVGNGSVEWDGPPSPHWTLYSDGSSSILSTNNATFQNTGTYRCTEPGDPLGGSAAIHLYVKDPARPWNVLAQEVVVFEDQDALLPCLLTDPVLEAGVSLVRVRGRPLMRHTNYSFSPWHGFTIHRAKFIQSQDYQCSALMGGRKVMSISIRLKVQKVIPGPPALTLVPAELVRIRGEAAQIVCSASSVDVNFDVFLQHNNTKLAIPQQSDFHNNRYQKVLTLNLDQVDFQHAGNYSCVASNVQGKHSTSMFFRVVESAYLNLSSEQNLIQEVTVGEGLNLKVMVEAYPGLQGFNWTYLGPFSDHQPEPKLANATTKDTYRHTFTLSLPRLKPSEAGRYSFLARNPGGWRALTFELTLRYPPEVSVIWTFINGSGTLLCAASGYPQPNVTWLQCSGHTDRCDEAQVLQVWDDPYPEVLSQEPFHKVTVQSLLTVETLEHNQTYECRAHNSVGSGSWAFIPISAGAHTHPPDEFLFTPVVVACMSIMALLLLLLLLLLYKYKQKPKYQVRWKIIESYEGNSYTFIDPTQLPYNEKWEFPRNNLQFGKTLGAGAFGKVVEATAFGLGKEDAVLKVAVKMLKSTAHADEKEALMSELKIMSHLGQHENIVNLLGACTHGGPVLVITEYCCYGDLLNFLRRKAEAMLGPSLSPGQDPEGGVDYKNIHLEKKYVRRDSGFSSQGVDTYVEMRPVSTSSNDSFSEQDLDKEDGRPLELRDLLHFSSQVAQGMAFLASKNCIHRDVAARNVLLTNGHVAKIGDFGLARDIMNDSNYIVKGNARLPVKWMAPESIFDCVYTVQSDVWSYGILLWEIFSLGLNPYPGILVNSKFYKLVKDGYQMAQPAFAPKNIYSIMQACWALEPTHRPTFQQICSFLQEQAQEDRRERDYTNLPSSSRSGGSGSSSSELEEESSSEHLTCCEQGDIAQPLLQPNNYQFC
Chain of Kit (P10721 26-976): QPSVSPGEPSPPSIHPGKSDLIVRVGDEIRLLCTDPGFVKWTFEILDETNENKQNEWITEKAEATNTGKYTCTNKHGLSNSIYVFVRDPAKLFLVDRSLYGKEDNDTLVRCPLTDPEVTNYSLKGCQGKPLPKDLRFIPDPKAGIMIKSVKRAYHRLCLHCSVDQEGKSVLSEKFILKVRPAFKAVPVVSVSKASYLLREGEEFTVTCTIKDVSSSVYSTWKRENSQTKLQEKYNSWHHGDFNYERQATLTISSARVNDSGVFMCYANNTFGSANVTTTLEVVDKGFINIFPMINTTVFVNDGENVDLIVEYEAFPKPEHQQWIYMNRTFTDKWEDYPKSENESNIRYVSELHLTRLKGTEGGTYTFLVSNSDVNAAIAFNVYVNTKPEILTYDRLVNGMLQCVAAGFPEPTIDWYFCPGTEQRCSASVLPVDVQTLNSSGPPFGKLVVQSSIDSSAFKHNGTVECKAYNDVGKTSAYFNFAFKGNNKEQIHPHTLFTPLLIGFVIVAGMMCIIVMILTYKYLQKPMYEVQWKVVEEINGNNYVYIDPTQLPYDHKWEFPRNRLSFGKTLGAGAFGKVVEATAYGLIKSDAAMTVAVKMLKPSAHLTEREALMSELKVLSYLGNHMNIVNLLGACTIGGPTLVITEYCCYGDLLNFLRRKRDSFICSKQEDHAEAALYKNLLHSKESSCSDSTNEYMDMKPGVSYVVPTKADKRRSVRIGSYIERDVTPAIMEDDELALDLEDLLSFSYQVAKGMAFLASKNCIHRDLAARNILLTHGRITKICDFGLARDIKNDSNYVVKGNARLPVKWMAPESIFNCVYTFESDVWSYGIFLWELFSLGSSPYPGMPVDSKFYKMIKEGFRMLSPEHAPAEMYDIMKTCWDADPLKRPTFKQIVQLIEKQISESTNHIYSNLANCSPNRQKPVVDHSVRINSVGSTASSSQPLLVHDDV
Chain of B-Raf V600E (P15056 whole entry V600E): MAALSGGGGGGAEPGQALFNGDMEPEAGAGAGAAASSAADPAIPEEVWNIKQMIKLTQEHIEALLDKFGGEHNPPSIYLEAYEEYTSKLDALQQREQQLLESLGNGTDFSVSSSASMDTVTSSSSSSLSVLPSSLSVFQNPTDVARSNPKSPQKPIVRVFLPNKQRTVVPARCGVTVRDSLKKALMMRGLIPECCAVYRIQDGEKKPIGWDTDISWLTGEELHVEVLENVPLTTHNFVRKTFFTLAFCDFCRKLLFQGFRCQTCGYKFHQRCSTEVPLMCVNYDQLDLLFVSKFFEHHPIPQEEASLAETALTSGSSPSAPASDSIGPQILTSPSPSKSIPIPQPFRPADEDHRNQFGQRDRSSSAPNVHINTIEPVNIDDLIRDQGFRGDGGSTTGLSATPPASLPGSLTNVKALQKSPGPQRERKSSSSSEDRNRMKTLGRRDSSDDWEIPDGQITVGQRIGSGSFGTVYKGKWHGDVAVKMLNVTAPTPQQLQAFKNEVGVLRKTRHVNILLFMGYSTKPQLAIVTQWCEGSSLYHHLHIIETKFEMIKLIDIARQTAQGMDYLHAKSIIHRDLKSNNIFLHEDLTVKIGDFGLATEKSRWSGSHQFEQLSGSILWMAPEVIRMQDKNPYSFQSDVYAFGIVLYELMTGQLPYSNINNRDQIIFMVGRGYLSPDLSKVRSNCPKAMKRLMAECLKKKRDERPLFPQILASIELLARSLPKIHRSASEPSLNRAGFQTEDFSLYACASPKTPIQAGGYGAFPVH
Chain of MAP4K4 (O95819 whole entry): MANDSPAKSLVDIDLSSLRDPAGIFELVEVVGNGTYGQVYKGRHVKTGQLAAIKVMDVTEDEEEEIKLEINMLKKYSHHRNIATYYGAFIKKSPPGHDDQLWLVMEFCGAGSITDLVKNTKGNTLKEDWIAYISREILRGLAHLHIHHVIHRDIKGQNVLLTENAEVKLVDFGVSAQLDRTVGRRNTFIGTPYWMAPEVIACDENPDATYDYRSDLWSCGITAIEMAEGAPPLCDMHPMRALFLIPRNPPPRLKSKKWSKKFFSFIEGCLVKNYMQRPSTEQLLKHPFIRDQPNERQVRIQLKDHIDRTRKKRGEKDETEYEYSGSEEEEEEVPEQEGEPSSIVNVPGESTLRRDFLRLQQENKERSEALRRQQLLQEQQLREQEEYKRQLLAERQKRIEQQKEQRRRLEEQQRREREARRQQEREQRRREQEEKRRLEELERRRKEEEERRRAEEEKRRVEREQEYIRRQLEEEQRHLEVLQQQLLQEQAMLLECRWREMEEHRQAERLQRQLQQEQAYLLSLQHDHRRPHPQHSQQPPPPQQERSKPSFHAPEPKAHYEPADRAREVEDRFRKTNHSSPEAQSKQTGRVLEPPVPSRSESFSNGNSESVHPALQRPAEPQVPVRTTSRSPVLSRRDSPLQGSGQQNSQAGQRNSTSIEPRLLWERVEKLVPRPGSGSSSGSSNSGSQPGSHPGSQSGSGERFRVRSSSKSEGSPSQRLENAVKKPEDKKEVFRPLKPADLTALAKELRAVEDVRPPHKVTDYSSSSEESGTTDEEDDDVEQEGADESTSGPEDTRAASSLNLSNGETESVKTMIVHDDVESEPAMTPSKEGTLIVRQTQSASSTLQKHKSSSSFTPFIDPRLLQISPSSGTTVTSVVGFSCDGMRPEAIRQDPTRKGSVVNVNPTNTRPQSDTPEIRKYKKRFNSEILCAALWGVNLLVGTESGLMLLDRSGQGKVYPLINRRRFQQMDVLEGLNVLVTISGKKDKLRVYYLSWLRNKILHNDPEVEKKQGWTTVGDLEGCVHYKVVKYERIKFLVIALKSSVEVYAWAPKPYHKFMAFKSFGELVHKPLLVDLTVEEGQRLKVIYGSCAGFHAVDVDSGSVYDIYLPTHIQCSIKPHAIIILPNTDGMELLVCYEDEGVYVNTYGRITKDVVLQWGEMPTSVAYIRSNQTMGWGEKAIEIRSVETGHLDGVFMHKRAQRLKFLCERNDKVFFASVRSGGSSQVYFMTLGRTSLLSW
Chain of B-Raf (P15056 whole entry): as the sequence (P15056 whole entry V600E) above, with E600V counted along it

N#Cc1cnc2[nH]cc(C(=O)c3cccc(NS(=O)(=O)c4cc(F)ccc4F)c3F)c2c1 [P-2052, N-[3-(5-Cyano-1H-pyrrolo[2,3-b]pyridine-3-carbonyl)-2-fluoro-phenyl]-2,5-difluoro-benzenesulfonamide]
not listed: A-Raf | Fms | MAP4K4
≤ 10 µM: all other assays above

N#Cc1cnc2[nH]cc(C(=O)c3cccc(NS(=O)(=O)c4cccc(F)c4)c3F)c2c1 [P-2053, N-[3-(5-Cyano-1H-pyrrolo[2,3-b]pyridine-3-carbonyl)-2-fluoro-phenyl]-3-fluoro-benzenesulfonamide]
≤ 10 µM: Btk | TEC | B-Raf V600E | B-Raf | C-Raf | Src

CCCS(=O)(=O)Nc1ccc(F)c(C(=O)c2c[nH]c3ncc(-c4ccc(OCCCN5CCCC5)nc4)cc23)c1F [P-2235, Propane-1-sulfonic acid (2,4-difluoro-3-{5-[6-(3-pyrrolidin-1-yl-propoxy)-pyridin-3-yl]-1H-pyrrolo[2,3-b]pyridine-3-carbonyl}-phenyl)-amide]
not listed: TEC
≤ 10 µM: all other assays above

CCCS(=O)(=O)Nc1ccc(F)c(C(=O)c2c[nH]c3ncc(-c4ccc(C#CCN(CC)CC)nc4)cc23)c1F [P-2222, Propane-1-sulfonic acid (3-{5-[6-(3-diethylamino-prop-1-ynyl)-pyridin-3-yl]-1H-pyrrolo[2,3-b]pyridine-3-carbonyl}-2,4-difluoro-phenyl)-amide]
not listed: TEC | A-Raf
≤ 10 µM: all other assays above

N#Cc1cnc2[nH]cc(C(=O)c3cccc(NS(=O)(=O)c4c(F)cccc4F)c3F)c2c1 [P-2054, N-[3-(5-Cyano-1H-pyrrolo[2,3-b]pyridine-3-carbonyl)-2-fluoro-phenyl]-2,6-difluoro-benzenesulfonamide]
not listed: A-Raf | Fms | MAP4K4
≤ 10 µM: all other assays above

N#Cc1cnc2[nH]cc(C(=O)c3cccc(NS(=O)(=O)CC(F)(F)F)c3F)c2c1 [P-2414, 2,2,2-Trifluoro-ethanesulfonic acid [3-(5-cyano-1H-pyrrolo[2,3-b]pyridine-3-carbonyl)-2-fluoro-phenyl]-amide]
≤ 10 µM: Btk | TEC | B-Raf V600E | B-Raf | C-Raf | Src

N#Cc1cnc2[nH]cc(C(=O)c3cccc(NS(=O)(=O)c4ccccc4F)c3F)c2c1 [P-2051, N-[3-(5-Cyano-1H-pyrrolo[2,3-b]pyridine-3-carbonyl)-2-fluoro-phenyl]-2-fluoro-benzenesulfonamide]
not listed: A-Raf | Fms | MAP4K4
≤ 10 µM: all other assays above

CCCS(=O)(=O)Nc1ccc(F)c(C(=O)c2c[nH]c3ncc(-c4ccc(NS(C)(=O)=O)cc4)cc23)c1F [P-2165, Propane-1-sulfonic acid {2,4-difluoro-3-[5-(4-methanesulfonylamino-phenyl)-1H-pyrrolo[2,3-b]pyridine-3-carbonyl]-phenyl}-amide]
not listed: TEC | MAP4K4
≤ 10 µM: all other assays above

O=C(c1cc(NS(=O)(=O)N2CCCCC2)ccc1F)c1c[nH]c2ncccc12 [P-2440, Piperidine-1-sulfonic acid [4-fluoro-3-(1H-pyrrolo[2,3-b]pyridine-3-carbonyl)-phenyl]-amide]
≤ 10 µM: Btk | TEC | Fms

CCS(=O)(=O)Nc1ccc(F)c(C(=O)c2c[nH]c3ncc(-c4ccc(F)cc4)cc23)c1F [P-2270, Ethanesulfonic acid {2,4-difluoro-3-[5-(4-fluoro-phenyl)-1H-pyrrolo[2,3-b]pyridine-3-carbonyl]-phenyl}-amide]
not listed: TEC | C-Raf | A-Raf
≤ 10 µM: all other assays above

COc1ncc(-c2cnc3[nH]cc(C(=O)c4c(F)ccc(NS(=O)(=O)N5CCCC5)c4F)c3c2)cn1 [P-2400]
not listed: A-Raf | Fms | MAP4K4
≤ 10 µM: all other assays above

N#Cc1cnc2[nH]cc(C(=O)c3cccc(NS(=O)(=O)N4CCCC4)c3F)c2c1 [P-2420, Pyrrolidine-1-sulfonic acid [3-(5-cyano-1H-pyrrolo[2,3-b]pyridine-3-carbonyl)-2-fluoro-phenyl]-amide]
≤ 10 µM: Btk | A-Raf | B-Raf V600E | B-Raf | C-Raf

N#Cc1cnc2[nH]cc(C(=O)c3cccc(NS(=O)(=O)c4ccccn4)c3F)c2c1 [P-2087, Pyridine-2-sulfonic acid [3-(5-cyano-1H-pyrrolo[2,3-b]pyridine-3-carbonyl)-2-fluoro-phenyl]-amide]
≤ 10 µM: Btk | TEC | B-Raf V600E | B-Raf | C-Raf | Src
